Assay [1] relates to zebrafish hyaloid vasculature. The assay can be described thus: Quantification of primary hyaloid vasculature branch number in Tg(fli1:EGFP) zebrafish. Type of assay: in vivo. The conditions noted are these: for dose-dependent inhibition of development of hyaloid vessels: decreasing doses 20, 10, 7.5, 5, 2.5, 1 and/or 0.5 μM; for inhibition of developmental angiogenesis of the hyaloid vasculature (number of primary hyaloid vessels): typically 10 μM or 5 μM, from 24 hpf, vs DMSO control. How it is done: (§1) All experiments were carried out under ethical approval granted by the UCD animal research ethics committee. Tg(fli1:EGFP) zebrafish were maintained according to standard procedures on a 14 hr light/10 hr dark cycle at 28° C. Embryos were obtained by natural spawning and developmental stages established by time and morphological criteria. […] Larvae were euthanised, and fixed in 4% PFA at 4° C. overnight before analysis.
Overall patterning of the vasculature (fin, gut and intersegmental vessels) was examined for abnormalities. Right lenses were dissected from the larvae and transferred to depression slides for observation under epi-fluorescence in the Olympus SZX16. Patterning of the hyaloid vessels on the treated larval lenses was compared to DMSO controls and the archetypal pattern previously described (Alvarez et al., 2007; Alvarez et al., 2009).
as §1, with “analysis. Lenses were dissected from the larvae and transferred to depression slides for observation under epi-fluorescence in the Olympus SZX16. Patterning of the hyaloid vessels on the treated larval lenses was compared to DMSO controls and the archetypal pattern previously described (Alvarez et al., 2007; Alvarez et al., 2009).” for “analysis.”

Assay [2] has as its system zebrafish intersegmental vessels. The assay can be described thus: Quantification of intersegmental vessel number in zebrafish. Format: in vivo. How it is done:
[…] Larvae were manually dechorionated, euthanised, and fixed in 4% PFA at 4° C. overnight before analysis. The larvae were then washed with PBS and transferred to depression slides for observation under epi-fluorescence in an Olympus SZX16 fluorescent microscope. The number of intersegmental vessels was counted and the average number was graphed for each drug.
Larvae were manually dechorionated, euthanised, and fixed in 4% PFA at 4° C. overnight before analysis. The larvae were then washed with PBS and transferred to depression slides for observation under epi-fluorescence in an Olympus SZX16 fluorescent microscope. The number of intersegmental vessels was counted and the average number was graphed for each drug.

Structures are written as SMILES.

Take `Cl.Oc1cccc(CCc2ccc3ccccc3n2)c1` [Compound 11B_CC5_HCl, 3-(2-Quinolin-2-yl-ethyl)-phenol HCl salt]: the “dose-dependent inhibition of development of hyaloid vessels” value (“dose-dependent inhibition” for short) in assay [1] (HCl salt) is “inhibit developmental angiogenesis of zebrafish hyaloid vasculature in a dose-dependent statistically significant manner”; in assay [1] (listed as 11B-CC5 HCl, HCl salt), “dose-dependent effect”. The “inhibition of developmental angiogenesis of the hyaloid vasculature (number of primary hyaloid vessels)” value (from here on “inhibition … (number of primary hyaloid vessels)”) in assay [1] is listed as “inhibit developmental angiogenesis of the zebrafish hyaloid vasculature in a statistically significant manner”. In addition, the “inhibition of developmental angiogenesis of intersegmental vessels (number of intersegmental vessels)” value (shortened to “inhibition … (number of intersegmental vessels)”) in assay [2] (10 μM, from 6 hpf) was “inhibit developmental angiogenesis of zebrafish intersegmental vessels in a statistically significant manner”. Turning to `Oc1cccc(C=Cc2ccc3ccccc3n2)c1` [Compound 11B_CC2, 3-(2-Quinolin-2-yl-vinyl)-phenol], the “inhibition … (number of primary hyaloid vessels)” value in assay [1] is listed as “inhibit developmental angiogenesis of the zebrafish hyaloid vasculature in a statistically significant manner”. For the same molecule, the “inhibition … (number of intersegmental vessels)” value in assay [2] (10 μM, from 6 hpf) is “inhibit developmental angiogenesis of zebrafish intersegmental vessels in a statistically significant manner”. Take `Cl.Oc1ccc(C=Cc2ccc3ccccc3n2)cc1` [Compound 11B_CC3_HCl, 4-(2-Quinolin-2-yl-vinyl)-phenol HCl salt]: in assay [2] (10 μM, from 6 hpf), the “inhibition … (number of intersegmental vessels)” value is on record as “inhibit developmental angiogenesis of zebrafish intersegmental vessels in a statistically significant manner”. Still for that read-out and setting: next, `Oc1ccccc1/C=C/c1cc(O)c2ccccc2n1` [Compound 11B-470, 2-[(E)-2-(2-Hydroxyphenyl)vinyl]-4-quinolinol]: “inhibit developmental angiogenesis of zebrafish intersegmental vessels in a statistically significant manner”. On to `Cc1cccc(/C=C/c2ccc3cccc(O)c3n2)c1O` [Compound 11B-438, 2-[(E)-2-(2-Hydroxy-3-methylphenyl)vinyl]-8-quinolinol], for which the “inhibition … (number of primary hyaloid vessels)” value in assay [1] is reported as “inhibit developmental angiogenesis of the zebrafish hyaloid vasculature in a statistically significant manner”. Also, in assay [2] (10 μM, from 6 hpf), the “inhibition … (number of intersegmental vessels)” value is recorded as “inhibit developmental angiogenesis of zebrafish intersegmental vessels in a statistically significant manner”. As to `Oc1cccc(CCc2ccc3ccccc3n2)c1` [Compound 11B_CC5, 3-(2-Quinolin-2-yl-ethyl)-phenol], in assay [1], the “inhibition … (number of primary hyaloid vessels)” value was “inhibit developmental angiogenesis of the zebrafish hyaloid vasculature in a statistically significant manner”. As to `Cc1ccc2nc(/C=C/c3cccc(O)c3)ccc2c1` [Compound 11B-814, 3-[(E)-2-(6-Methyl-2-quinolinyl)vinyl]phenol], in assay [1], the “dose-dependent inhibition” value is given as “dose-dependent effect” and the “inhibition … (number of primary hyaloid vessels)” value is listed as “inhibit developmental angiogenesis of the zebrafish hyaloid vasculature in a statistically significant manner”. As for `Cl.Oc1cccc(C#Cc2ccc3ccccc3n2)c1` [Compound 11B_CC15_HCl, 3-Quinolin-2-yl-ylethynyl-phenol HCl salt], the “inhibition … (number of intersegmental vessels)” value in assay [2] (10 μM, from 6 hpf) is “inhibit developmental angiogenesis of zebrafish intersegmental vessels in a statistically significant manner”. For `Oc1cccc2ccc(C=Cc3ccccc3Cl)nc12` [Compound 11B-736, 2-[2-(2-chlorophenyl)vinyl]-8-quinolinol], in assay [2] (10 μM, from 6 hpf), the “inhibition … (number of intersegmental vessels)” value is listed as “inhibit developmental angiogenesis of zebrafish intersegmental vessels in a statistically significant manner”.

Take `Oc1ccccc1/C=C\c1ccc2ccccc2n1` [Compound 11B_Z, (Z)-2-(2-(Quinolin-2-yl)vinyl) phenol]: in assay [1], the “inhibition … (number of primary hyaloid vessels)” value is “inhibit developmental angiogenesis of the zebrafish hyaloid vasculature in a statistically significant manner”. In addition, in assay [2] (10 μM, from 6 hpf), the “inhibition … (number of intersegmental vessels)” value is recorded as “inhibit developmental angiogenesis of zebrafish intersegmental vessels in a statistically significant manner”. Consider `CCOc1cc2c(cc1OCC)C(c1cc3c(cc1Br)OCO3)NCC2` (centres unmarked) [Compound 11F-001, 1-(6-bromo-1,3-benzodioxol-5-yl)-6,7-diethoxy-1,2,3,4-tetrahydroisoquinoline], for which the “inhibition … (number of primary hyaloid vessels)” value in assay [1] is recorded as “inhibit developmental angiogenesis of the zebrafish hyaloid vasculature in a statistically significant manner”. With `Oc1ccc(O)c(/C=C/c2ccc3ccccc3n2)c1` [Compound 11B_CC12, (E)-2-(2-Quinolin-2-yl-vinyl)--benzene-1,4-diol], the “inhibition … (number of intersegmental vessels)” value in assay [2] (11B_CC12 tested at 2.5 μM, n=2) is recorded as “inhibit developmental angiogenesis of zebrafish intersegmental vessels in a statistically significant manner”. Turning to `C/C(=C\c1ccccc1O)c1ccc2ccccc2n1` [Compound 11B_CC11, (E)-2-(2-Quinolin-2-yl-propenyl)-phenol], the “inhibition … (number of primary hyaloid vessels)” value in assay [1] was “inhibit developmental angiogenesis of the zebrafish hyaloid vasculature in a statistically significant manner”. Besides, in assay [2] (10 μM, from 6 hpf), the “inhibition … (number of intersegmental vessels)” value is on record as “inhibit developmental angiogenesis of zebrafish intersegmental vessels in a statistically significant manner”. Consider `COc1ccc(Br)cc1C=Cc1ccc2ccccc2n1` [Compound 11B-074, 2-[2-(5-bromo-2-methoxyphenyl)vinyl]quinoline], for which the “inhibition … (number of primary hyaloid vessels)” value in assay [1] was “inhibit developmental angiogenesis of the zebrafish hyaloid vasculature in a statistically significant manner”. Consider `Oc1cccc(C#Cc2ccc3ccccc3n2)c1` [Compound 11B_CC15, 3-Quinolin-2-yl-ylethynyl-phenol], for which the “inhibition … (number of intersegmental vessels)” value in assay [2] (10 μM, from 6 hpf) is given as “inhibit developmental angiogenesis of zebrafish intersegmental vessels in a statistically significant manner”. `Cl.Oc1ccccc1CCc1ccc2ccccc2n1` [Compound 11B_CC4_HCl, 2-(2-Quinolin-2-yl-ethyl)-phenol HCl salt]: the “dose-dependent inhibition” value was “inhibit developmental angiogenesis of zebrafish hyaloid vasculature in a dose-dependent statistically significant manner” in assay [1] (HCl salt) and “dose-dependent effect” in assay [1] (listed as 11B-CC4 HCl, HCl salt). In assay [1], the “inhibition … (number of primary hyaloid vessels)” value is given as “inhibit developmental angiogenesis of the zebrafish hyaloid vasculature in a statistically significant manner”. Besides, the “inhibition … (number of intersegmental vessels)” value in assay [2] (10 μM, from 6 hpf) is “inhibit developmental angiogenesis of zebrafish intersegmental vessels in a statistically significant manner”. On to `Oc1ccc(-c2ccc3c(c2)OCO3)cc1CN1CCc2ccccc2C1` [Compound 11F-978, 4-(1,3-benzodioxol-5-yl)-2-(3,4-dihydro-2(1H)-isoquinolinylmethyl)phenol], for which the “inhibition … (number of primary hyaloid vessels)” value in assay [1] is “inhibit developmental angiogenesis of the zebrafish hyaloid vasculature in a statistically significant manner”.

Regarding `CCN1CCc2cc(OC)c(OC)cc2C1c1ccc2c(c1)OCO2` (racemic) [Compound 11F-CC10, (rac)-1-Benzo[1,3]dioxol-5-yl-6,7-dimethoxy-2-ethyl-1,2,3,4-tetrahydro-isoquinoline], the “inhibition … (number of primary hyaloid vessels)” value in assay [1] is “inhibit developmental angiogenesis of the zebrafish hyaloid vasculature in a statistically significant manner”. Still for that read-out and setting: next, `COc1cc(CN2CCc3ccccc3C2)cc2c1OCO2` [Compound 11F-708, 2-[(7-methoxy-1,3-benzodioxol-5-yl)methyl]-1,2,3,4-tetrahydroisoquinoline]: “inhibit developmental angiogenesis of the zebrafish hyaloid vasculature in a statistically significant manner”. As for `COc1ccc(I)cc1C=Cc1ccc2ccccc2n1` [Compound 11B-412, 2-[2-(5-iodo-2-methoxyphenyl)vinyl]quinoline], the “inhibition … (number of intersegmental vessels)” value in assay [2] (10 μM, from 6 hpf) is reported as “inhibit developmental angiogenesis of zebrafish intersegmental vessels in a statistically significant manner”. Consider `CCOc1ccccc1C=Cc1ccc2cccc(O)c2n1` [Compound 11B-739, 2-[2-(2-ethoxyphenyl)vinyl]-8-quinolinol], for which the “inhibition … (number of primary hyaloid vessels)” value in assay [1] is reported as “inhibit developmental angiogenesis of the zebrafish hyaloid vasculature in a statistically significant manner”.

The values are drawn from patent US9815788B2, “Anti-angiogenic compounds” (University College Dublin National University of Ireland, …, priority 2012, dated 2017).
